Measured values taken from patent publication US20150183748A1, “METHODS OF TREATMENT AND PREVENTION OF NEURODEGENERATIVE DISEASES AND DISORDERS” (Thomas Jefferson University, priority 2007, published 2015).
“Also recorded” adds a separate entry of the source.

System: DM/HC pig model
Assay: Diabetic/hypercholesterolemic (DM/HC) pig model: brain histology/IHC, weight and behaviour
Type: in vivo
Method: A diabetic/diabetic hypercholestrolemic pig model (DM/HC) was developed that mimics human-like atherosclerosis. Farm pigs weighing 25-30 kg and aged ˜4 months were made diabetic with a single intravenous injection of 125 mg/kg of streptozotocin (Sicor Pharmaceuticals, Irvine, Calif.). After stabilization for 1-2 weeks, the animals with elevated levels of plasma glucose (>150 mg/dl) were fed with atherogenic (high-fat) diet as shown in Table 1 (Animal Specialties, Quakertown, Pa.) to achieve a cholesterol level of approximately […] Maintenance of the cholesterol level was determined by method as shown in Table 2.
On days 1-2, animals were fed normal chow, followed by on days 3-14 animals were fed a diet of 0.5% cholesterol, 2% lard and on day 14, cholesterol levels were measured and the diet adjusted accordingly to increase to 2% cholesterol, 10% lard if cholesterol is <300 mg/dl. Following induction of DM/HC, cholesterol was measured until cholesterol levels are stable between 300 and 800 mg/dl, and following cholesterol stabilization, cholesterol was measured monthly. If cholesterol levels were unstable following initial stabilization phase, the diet of the animal was returned to the initial two-week measurement schedule. Monthly cholesterol levels were determined, including levels of total cholesterol, LDL, HDL, VLDL and triglycerides.
At one month after stabilization of cholesterol at 250-800 mg/d1, the animals were randomized into two experimental groups, DM/HC (hyperglycemia and hypercholesterolemia) group with no treatment and treatment group (10 mg/kg/day of SB-480848, also referred to as 1-(N-(2-(diethylamino)ethyl)-N-(4-(4-trifluoromethylphenyl)benzyl)-aminocarbonylmethyl)-2-(4-fluorobenzyl)thio-5,6-trimethylenepyrimidin-4-one). The animals were sacrificed at 6-month after the randomization. The animal protocol has been approved by the Institutional Animal Care and Use Committee of University of Pennsylvania.
Two diabetic/hypercholesterolemic groups were evaluated: 1. DM/HC group and 2. DM/HC animals receiving Lp-PLA2 inhibitors. The experiments included: the control group (DM/HC group—17 pigs) and the experimental group (DM/HC animals receiving LP-PLA2 inhibitors—20 pigs). In addition blood cholesterol levels were maintained between 300 and 800 mg/dl in experimental animals, this range having been determined to provide a better test model. Blood cholesterol levels were monitored in all animals on a bimonthly basis, as shown in Table 4 and adjustments were made to the fat content of the feed accordingly, as shown in Table 2. The cholesterol and lard percent were in the range of 0.5-2% and 10-25%, respectively, and all animals received feed that contained cholesterol and lard concentration within that range. Blood samples were obtained at baseline, 1 month, 3 months, and 6 months. Less than 1 ml/kg of blood were obtained each time. At the bimonthly blood cholesterol levels tests, levels of total cholesterol, LDL, HDL, VLDL and triglycerides, blood glucose, Lp-PLA2 and […] (PBMCs) were tested (see Table 4).
The animal number, selected to justify the minimum requirement for statistical validity were 2 groups of animals per experiment as follows: 1. Control group (n=17); Diabetic and hyperlipidemic; 2.
Domestic farm pigs, Yorkshire boars, ranging in weight between 25-35 kg were purchased from a local farm and placed in indoor housing under the care of a veterinarian. They were castrated 3-5 days in advance of the study start date. Test pigs were made diabetic by infusing one dose of streptozocin (125 mg/kg) IV in a period of 30 min. […] To avoid the possible onset of initial hypoglycemia, 20 g of glucose powder was added to the feed for the […]. The blood glucose was measured using a glucometer every day before feeding for the first 14 days and then once a week.
Test animals were housed separately from control animals to avoid inter-animal transfer of drug due to colcophagia. […]

[1] = DM/HC pigs, 10 mg/kg/day, brain IHC for pig immunoglobulin
[2] = DM/HC pigs, 10 mg/kg/day, observed during study period vs control non-treated animals

## CCN(CC)CCN(Cc1ccc(-c2ccc(C(F)(F)F)cc2)cc1)C(=O)Cn1c(SCc2ccc(F)cc2)nc(=O)c2c1CCC2 [Lp-PLA2 inhibitor, 1-(N-(2-(diethylamino)ethyl)-N-(4-(4-trifluoromethylphenyl)benzyl)-aminocarbonylmethyl)-2-(4-fluorobenzyl)thio-5,6-trimethylenepyrimidin-4-one]
DM/HC pigs treated with Lp-PLA2 inhibitor, GFAP as marker
  activation of glial cells: less activation of glial cells
DM/HC pigs, 10 mg/kg/day, Abeta-42 immunostaining of arterioles
  Abeta42 accumulation in vascular SMCs (cerebrovascular amyloidosis): little or no arterial Abeta-42 immunostaining; also recorded: prevented Abeta42 accumulation in vascular SMCs
DM/HC pigs, 10 mg/kg/day, brain Abeta-42 immunostaining, n=6
  Abeta-42 accumulation in neurons (immunoreactivity): immunonegative neurons for Abeta-42; also recorded: no neuronal Abeta-42 immunoreactivity
DM/HC pigs, 10 mg/kg/day, brain IHC
  dendrite collapse: no dendrite collapse
[1]
  Ig binding to neurons: no Ig binding to neurons
  Ig leakage from blood vessels: Ig is confined to the lumen of the blood vessels; also recorded: no Ig leakage from blood vessels
DM/HC pigs, 10 mg/kg/day, brain IHC for pig immunoglobulin, n=6
  DM/HC-induced BBB leakage: prevents BBB leakage; also recorded: negligible BBB leakage
DM/HC pigs, 10 mg/kg/day, compared with non-treated animals
  sick neurons: rarely observed
[2]
  activity in the cage: increased activity in the cage
  response to feeding and handling: respond more alertly to feeding and handling
  responsiveness to external stimuli: more responsive to external stimuli
